# Data from patent US20250129430A1, “HIGH ATP-AFFINITY PROTEIN AS THERAPEUTIC TARGET FOR INTRACTABLE CANCER MOLECULAR SUBTYPES AND INHIBITOR THEREOF” (VeraVerse Co., Ltd., priority 2021, published 2025).
# What was measured:
# Assay in all cases: Cell viability drug screen, 12-point dose-response AUC
# Type in all cases: cell-based, human
# SNU601 = SNU601 cells; 72 hours
# Method: (§1) An FDA-approved small-molecule pharmacological compound (#L1300) and an anticancer compound for research (#L2000) were purchased from Selecckchem and a 10 mM solution was prepared in DMSO. A total of 1,345 compounds were tested the cell viability of the seven EMT gastric cancer cell lines.
# (§2) Cells cultured for cell-based drug assay were inoculated into a 96-well white optical plate (Corning) at 5×10^3 cells per well. After 24 hours after inoculation, a 2.5 MJT (primary screen) or a half-log 12-serial diluent (secondary screen) of the pharmacological compound contained in DMSO is added to the cells with a robot using a BioMek FXp liquid processor (Beckman) to add to the cells at 50 mM. The final drug concentration in the 5 ns range and the DMSO specification control (0.5%) were calculated. The cells were then further incubated at 37° C. in a 5% CO2 incubator for 72 hours prior to measuring cell viability using the extra-GLO assay kit (Promega). The luminescent properties were measured after 15 min incubation at room temperature using a plate stacker equipped with a plate stacker. The normalized viability for the DMSO-based control was measured to generate a cell line-specific 12-point dose-response curve for each pharmacological compound, and then the area under the curve (AUC) was calculated using a trapezoidal method. […] The results of the repeated experiments were averaged to generate AUC values for each cell line for each compound.
# OCUM1 = OCUM1 cells; 72 hours
# Method: as §1, §2
# SNU719 = SNU719 cells; 72 hours
# Method: as §1, §2
# NCC20 = NCC20 cells; 72 hours
# Method: as §1, §2
# AGS = AGS cells (non-SEM subtype); 72 hours
# Method: as §1, §2
# KATO3 = KATO3 cells; 72 hours
# Method: as §1, §2
# SNU668 = SNU668 cells (SEM subtype); 72 hours
# Method: as §1, §2
# SNU484 = SNU484 cells (SEM subtype); 72 hours
# Method: as §1, §2
# MKN28 = MKN28 cells; 72 hours
# Method: as §1, §2
# MKN74 = MKN74 cells; 72 hours
# Method: as §1, §2
# SNU620 = SNU620 cells; 72 hours
# Method: as §1, §2
# SNU16 = SNU16 cells; 72 hours
# Method: as §1, §2
# NCI_N87 = NCI_N87 cells; 72 hours
# Method: as §1, §2
# YCC11 = YCC11 cells (SEM subtype); 72 hours
# Method: as §1, §2
# MKN45 = MKN45 cells (non-SEM subtype); 72 hours
# Method: as §1, §2
# SNU1967 = SNU1967 cells; 72 hours
# Method: as §1, §2
# YCC3 = YCC3 cells; 72 hours
# Method: as §1, §2
# NCC24 = NCC24 cells; 72 hours
# Method: as §1, §2
# SNU1 = SNU1 cells; 72 hours
# Method: as §1, §2
# NCC19 = NCC19 cells; 72 hours
# Method: as §1, §2
# MKN1 = MKN1 cells; 72 hours
# Method: as §1, §2
# Hs746T = Hs746T cells (SEM subtype); 72 hours
# Method: as §1, §2
# NCC59 = NCC59 cells; 72 hours
# Method: as §1, §2
# SK4 = SK4 cells (SEM subtype); 72 hours
# Method: as §1, §2
# SNU638 = SNU638 cells; 72 hours
# Method: as §1, §2
# YCC2 = YCC2 cells; 72 hours
# Method: as §1, §2
# SNU1750 = SNU1750 cells (SEM subtype); 72 hours
# Method: as §1, §2
# SNU216 = SNU216 cells (non-SEM subtype); 72 hours
# Method: as §1, §2
# FU97 = test system: FU97; set-up: Average Area Under the Viability Curve (AUC), AUC norm value: scale not given here; settings: FU97 cells; 72 hours
# Method: Cells cultured for cell-based drug assay were inoculated into a 96-well white optical plate (Corning) at 5×10^3 cells per well. After 24 hours after inoculation, a 2.5 MJT (primary screen) or a half-log 12-serial diluent (secondary screen) of the pharmacological compound contained in DMSO is added to the cells with a robot using a BioMek FXp liquid processor (Beckman) to add to the cells at 50 mM. The final drug concentration in the 5 ns range and the DMSO specification control (0.5%) were calculated. The cells were then further incubated at 37° C. in a 5% CO2 incubator for 72 hours prior to measuring cell viability using the extra-GLO assay kit (Promega). The luminescent properties were measured after 15 min incubation at room temperature using a plate stacker equipped with a plate stacker. The normalized viability for the DMSO-based control was measured to generate a cell line-specific 12-point dose-response curve for each pharmacological compound, and then the area under the curve (AUC) was calculated using a trapezoidal method.
SMILES,"Average Area Under the Viability Curve (AUC), AUC norm value (SNU601)","Average Area Under the Viability Curve (AUC), AUC norm value (OCUM1)","Average Area Under the Viability Curve (AUC), AUC norm value (SNU719)","Average Area Under the Viability Curve (AUC), AUC norm value (NCC20)","Average Area Under the Viability Curve (AUC), AUC norm value (AGS)","Average Area Under the Viability Curve (AUC), AUC norm value (KATO3)","Average Area Under the Viability Curve (AUC), AUC norm value (SNU668)","Average Area Under the Viability Curve (AUC), AUC norm value (SNU484)","Average Area Under the Viability Curve (AUC), AUC norm value (MKN28)","Average Area Under the Viability Curve (AUC), AUC norm value (MKN74)","Average Area Under the Viability Curve (AUC), AUC norm value (SNU620)","Average Area Under the Viability Curve (AUC), AUC norm value (SNU16)","Average Area Under the Viability Curve (AUC), AUC norm value (NCI_N87)","Average Area Under the Viability Curve (AUC), AUC norm value (YCC11)","Average Area Under the Viability Curve (AUC), AUC norm value (MKN45)","Average Area Under the Viability Curve (AUC), AUC norm value (SNU1967)","Average Area Under the Viability Curve (AUC), AUC norm value (YCC3)","Average Area Under the Viability Curve (AUC), AUC norm value (NCC24)","Average Area Under the Viability Curve (AUC), AUC norm value (SNU1)","Average Area Under the Viability Curve (AUC), AUC norm value (NCC19)",other results
"COc1cc(N2CCC(N3CCN(C)CC3)CC2)ccc1Nc1ncc(Cl)c(Nc2ccccc2S(=O)(=O)C(C)C)n1 [TAE684 (NVP-TAE684), TAE684]",1.062,−0.2195,1.051,−2.659,−1.326,0.2672,1.009,−0.6182,−0.4177,−0.04126,0.4637,−3.18,2.003,−1.4836,2.601,−1.412,1.708,1.662,−0.1185,1.944,"Average Area Under the Viability Curve (AUC), AUC norm value (MKN1): 0; Average Area Under the Viability Curve (AUC), AUC norm value (Hs746T): 1.039; Average Area Under the Viability Curve (AUC), AUC norm value (NCC59): 1.273; Average Area Under the Viability Curve (AUC), AUC norm value (SK4): −0.6572; Average Area Under the Viability Curve (AUC), AUC norm value (SNU638): 0.4071; Average Area Under the Viability Curve (AUC), AUC norm value (YCC2): −0.5512; Average Area Under the Viability Curve (AUC), AUC norm value (SNU1750): −0.941; Average Area Under the Viability Curve (AUC), AUC norm value (SNU216): 0.5205; Average Area Under the Viability Curve (AUC), AUC norm value (FU97): −1.587"
"O=C(Nc1ccc([N+](=O)[O-])cc1Cl)c1cc(Cl)ccc1O [Niclosamide (Niclocide), Niclosamide]",4.911,0,2.503,0.2177,−1.094,1.591,−0.9084,−1.164,−0.3809,−1.62,0.8518,−3.062,2.802,−0.8753,1.159,0.1419,1.8253,0.68,−1.673,2.917,"Average Area Under the Viability Curve (AUC), AUC norm value (MKN1): 0.3991; Average Area Under the Viability Curve (AUC), AUC norm value (Hs746T): −0.6858; Average Area Under the Viability Curve (AUC), AUC norm value (NCC59): 1.141; Average Area Under the Viability Curve (AUC), AUC norm value (SK4): −1.038; Average Area Under the Viability Curve (AUC), AUC norm value (SNU638): −1.105; Average Area Under the Viability Curve (AUC), AUC norm value (YCC2): 0.6628; Average Area Under the Viability Curve (AUC), AUC norm value (SNU1750): −0.8987; Average Area Under the Viability Curve (AUC), AUC norm value (SNU216): −0.5185; Average Area Under the Viability Curve (AUC), AUC norm value (FU97): −1.793"
OC1(c2ccc(Cl)c(C(F)(F)F)c2)CCN(CCCC(c2ccc(F)cc2)c2ccc(F)cc2)CC1 [Penfluridol],0.6748,0.2066,0.3303,−0.8471,−0.6917,0,0.00275,−0.3957,−0.6097,−1.133,0.04726,−1.2587,0.3682,−0.5164,0.9981,−0.08879,0.4477,0.5023,0.8479,0.6239,"Average Area Under the Viability Curve (AUC), AUC norm value (MKN1): −0.01646; Average Area Under the Viability Curve (AUC), AUC norm value (Hs746T): 0.2822; Average Area Under the Viability Curve (AUC), AUC norm value (NCC59): 0.3439; Average Area Under the Viability Curve (AUC), AUC norm value (SK4): −0.5075; Average Area Under the Viability Curve (AUC), AUC norm value (SNU638): −1.32; Average Area Under the Viability Curve (AUC), AUC norm value (YCC2): −0.07658; Average Area Under the Viability Curve (AUC), AUC norm value (SNU1750): −0.03209; Average Area Under the Viability Curve (AUC), AUC norm value (SNU216): −0.5069; Average Area Under the Viability Curve (AUC), AUC norm value (FU97): 0.09295"
